# Test results published in publication PMC7525662, “Preclinical dosimetry models and the prediction of clinical doses of novel positron emission tomography radiotracers” (Scientific Reports, 2020).
# Experiment: Whole-body PET biodistribution in rats
# Assay type: in vivo, Sprague–Dawley rats
# Conditions: PET images, i.v. bolus, 240 min
# Experimental: On the day of imaging, rats were anaesthetised with 2‒2.5% isoflurane (50/50 oxygen/nitrous oxide, 1 L/min), then transferred to the preclinical PET/CT scanner (nanoPET/CT, Mediso, Hungary) and placed in a supine position. A CT scan (semi-circular full trajectory, maximum field of view, 480 projections, 50 kVp, 300 ms and 1:4 binning) was acquired for attenuation correction.
# Immediately after radiotracer administration, a 240 min emission scan using 4 beds (50% overlap) was obtained using 3-dimensional 1:5 mode and re-binned as follows: 7 × 1 min, 2 × 5 min and 4 × 10 min. Throughout the PET/CT scanning session, animal temperature and respiration rate were monitored and controlled.
# PET studies were reconstructed using filtered-back projection (FBP) and Mediso’s iterative Tera-Tomo 3D reconstruction algorithm with the following settings: 4 iterations, 6 subsets, full detector model, normal regularization, spike filter on, voxel size 0.4 mm and 400‒600 keV energy window. PET data were corrected for randoms, scatter and attenuation.
# Reconstructed whole-body PET/CT images were imported into PMOD 3.8 software (PMOD Technologies, Switzerland) and static regions-of-interest (ROIs) were selected in approximately every third axial slice of source organs in animal subjects, which included the kidneys (left and right), urinary bladder, lungs (right and left), heart, brain, liver and intestine. […]
structure (smiles),measurement,value
"O=C[C@H]([18F])[C@@H](O)[C@H](O)[C@H](O)CO [FDG, 2-deoxy-2-[^18F]fluoro-D-glucose]",organs with highest uptake,"brain, heart, kidneys and urinary bladder"
